In patent US20240166599A1, “INDOLE DERIVATIVES AS SEROTONERGIC AGENTS USEFUL FOR THE TREATMENT OF DISORDERS RELATED THERETO” (Mindset Pharma Inc., priority 2021, published 2024):

Assays:
[1] = target: T1, human 5-HT2A (h5-HT2A) receptor (Homo sapiens, UniProt P28223); experiment: FLIPR assay, human 5-HT2A, agonist mode; type: cell-based
T1 construct: expressed in transfected cells
Description: I.c. Experimental Methods and Procedures: • 1. […] One day before the assays, the cells were detached using TrypLE™ Express and cells were counted using cell counter. […] 20000 cells/well were seeded in 30 μl/well culture medium to a 384-well cell plate and cells were incubated overnight at 37° C., 5% (v/v) CO2. • 4. On the assay day, 2×dye solution was prepared following the manual of the FLIPR® Calcium 6 Assay Kit: i. The dye was diluted with assay buffer (20 mM HEPES in 1×HBSS, PH7.4); ii. Probenecid was added to the final concentration of 5 mM; iii. […] Medium was removed from cell plate by flicking the cell plate on towel papers. • 6. […] The cell plate was placed on plate shaker, the plate was agitated at 600 rpm for 2 minutes. The plate was incubated at 37° C. for 2 hours followed by additional 15-minute incubation at 25° C. • 8. 3×compound in assay buffer was prepared: a. Reference compounds were diluted to required concentration with DMSO. The compounds were added to a 384-well compound plate; b. Serial dilutions were performed; c. 10 mM test compounds were added to the compound plate, and 3-fold serial dilutions were performed. d. […] Add 20 μl/well assay buffer to the compound plate; f. […] The cell plate, compound plate and tips were put into FLIPR, 10 μl of 3× compound was transferred to the cell plate per well with FLIPR.
• i. […] Calculated the percentage activation by using following equation: […]

human 5-HT2A receptor = human 5-HT2A receptor (Homo sapiens, UniProt P28223); experiment: biochemical
Chain of human 5-HT2A receptor (P28223 whole entry): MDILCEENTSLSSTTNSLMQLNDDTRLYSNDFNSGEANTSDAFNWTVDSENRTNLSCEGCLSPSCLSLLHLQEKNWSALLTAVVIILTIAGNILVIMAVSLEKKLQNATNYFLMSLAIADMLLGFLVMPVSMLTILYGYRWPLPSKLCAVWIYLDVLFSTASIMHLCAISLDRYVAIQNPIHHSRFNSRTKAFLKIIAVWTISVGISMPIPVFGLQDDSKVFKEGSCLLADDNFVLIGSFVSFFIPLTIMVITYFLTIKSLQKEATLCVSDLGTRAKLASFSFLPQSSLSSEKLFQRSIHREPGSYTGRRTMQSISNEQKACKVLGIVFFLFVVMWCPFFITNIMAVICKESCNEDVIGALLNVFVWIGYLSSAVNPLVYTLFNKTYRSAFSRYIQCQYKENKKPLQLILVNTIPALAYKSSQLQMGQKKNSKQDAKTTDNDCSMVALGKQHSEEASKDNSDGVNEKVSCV
Description: Human 5-HT2A: Radioligand Binding Assay:
II.3 Experiment Procedure: • i. Prepared the assay buffer following the table below;
• ii. Preparation of 8 doses of reference and test compounds starting from 10 mM stock solution as requested by 5-fold serial dilutions with 100%; • iii. Prepared (v/v) DMSO: a. 50 μl/well of 0.5% (v/v) PEI was added to UniFilter-96 GF/B plates. The plates were sealed and incubates at 4° C. for 3 hrs; b. After incubation, the plates were washed 3 times with ice-cold wash buffer (50 mM Tris, pH7.4); • iv. Preparation of assay plates: a. Cell membrane were diluted with assay buffer and 330 μl/well was added to 96 round deep well plates to reach a concentration of 20 μg/well; b. 8 concentrations of reference or test compounds were prepared and 110 μl/well was added to 96 round deep well plates; c. [3H]-ketanserin was diluted with assay buffer to 5 nM (5× final concentration) and 110 μl/well was added to 96 round deep well plates. • v. The plate was centrifuged at 1000 rpm for 30 secs and then agitated at 600 rpm, R.T. for 5 min. • vi. The plates were sealed and incubates at 27° C. for 90 min. • vii. The incubation was stopped by vacuum filtration onto GF/B filter plates followed by 4 times washing with ice-cold wash buffer (50 mM Tris, pH7.4). • viii. […] The filter plates were sealed and 40 μl/well of scintillation cocktail was added. • x. The plate was read by using a Microbeta2 microplate counter.
For reference and test compounds, the results are expressed as % Inhibition, using the normalization equation: N=100−100×(U−C2)/(C1−C2), where U is the unknown value, C1 is the average of high controls, and C2 is the average of low controls.

[2] = Liver microsomes stability, human; settings: for Remaining Percentage (%) after 60 min, Human: human liver microsomes with NADPH, 2 μM; for half-life at 2 μM / microsomal CLint at 2 μM: human, microsomes
Description: (§1) The objective of this study was to estimate in vitro metabolic stability of representative compounds of the application in pooled human and male mouse liver microsomes. The concentrations of parent compounds in reaction systems were evaluated by LC-MS/MS for estimating the stability in pooled human and male mouse liver microsomes. The in vitro intrinsic clearances of test compounds were determined as well.
(§2) A master solution in the “Incubation Plate” containing phosphate buffer, ultra-pure H2O, MgCl2 solution and liver microsomes was made according to Table 3. The mixture was pre-warmed at 37° C. water bath for 5 minutes.
(§3) 40 μL of 10 mM NADPH solution was added to each well. The final concentration of NADPH was 1 mM. The negative control samples were prepared by replacing NADPH with 40 μL of ultra-pure H2O. Samples were prepared in duplicate. Negative controls were prepared in singlet.
(§4) The reaction was started with the addition of 4 μL of 200 μM test compounds or control compounds to each master solution to get the final concentration of 2 μM. This study was performed in duplicate.
(§5) Aliquots of 50 μL were taken from the reaction solution at 0, 15, 30, 45 and 60 minutes. The reaction solutions were stopped by the addition of 4 volumes of cold methanol with IS (100 nM alprazolam, 200 nM imipramine, 200 nM labetalol and 2 μM ketoprofen). Samples were centrifuged at 3,220 g for 40 minutes. Aliquot of 90 μL of the supernatant was mixed with 90 μL of ultra-pure H2O and then was used for LC-MS/MS analysis.
(§6) LC/MS analysis was performed for all samples from this study using a Shimadzu liquid chromatograph separation system equipped with degasser DGU-20A5R; solvent delivery unit LC-30AD; system controller SIL-30AC; column oven CTO-30A; CTC Analytics HTC PAL System. Mass spectrometric analysis was performed using an Triple Quad™ 5500 instrument.
(§7) All calculations were carried out using Microsoft Excel. Peak areas were determined from extracted ion chromatograms. The slope value, k, was determined by linear regression of the natural logarithm of the remaining percentage of the parent drug vs. incubation time curve.
(§8) The in vitro half-life (in vitro t1/2) was determined from the slope value:
(§9) Conversion of the in vitro t1/2 (min) into the in vitro intrinsic clearance (in vitro CLint, in μL/min/mg proteins) was done using the following equation (mean of duplicate determinations): […]

[3] = Liver microsomes stability, mouse; settings: for half-life at 2 μM / microsomal CLint at 2 μM: male, mouse, microsomes; for Remaining Percentage (%) after 60 min, Mouse: mouse liver microsomes with NADPH, 2 μM
Description: as §1, §2, §3, §4, §5, §6, §7, §8, §9

[4] = Liver microsomes stability, rat; settings: for Remaining Percentage (%) after 60 min, Rat: rat liver microsomes with NADPH, 2 μM; for half-life at 2 μM / microsomal CLint at 2 μM: rat, microsomes

T1 sequence (P28223 whole entry): as above

SMILES | EC50 [1] [nM] | IC50 (human 5-HT2A receptor) [nM] | Remaining Percentage (%) after 60 min, Human [2] [%] | half-life at 2 μM [2] [min] | microsomal CLint at 2 μM [2] [µL/min/mg] | half-life at 2 μM [3] [min] | microsomal CLint at 2 μM [3] [µL/min/mg] | Remaining Percentage (%) after 60 min, Mouse [3] [%] | Remaining Percentage (%) after 60 min, Rat [4] [%] | half-life at 2 μM [4] [min] | microsomal CLint at 2 μM [4] [µL/min/mg]
CN(C)CCc1c[nH]c2ccccc12 [DMT, N,N-dimethyltryptamine, reference compound] | < 1000 | < 500 | – | – | – | – | – | – | – | – | –
[2H]c1[nH]c2c([2H])c([2H])c([2H])c([2H])c2c1CCN(C)C [I-A-2, 2-(1H-indol-3-yl-2,4,5,6,7-d5)-N,N-dimethylethan-1-amine] | < 1000 | < 500 | 0.76 | 8.52 | 18.8 | 17.4 | 41.2 | 59.38 | 17.65 | 24 | 36
[2H]C([2H])([2H])Oc1ccc2[nH]cc(C([2H])([2H])C([2H])([2H])N(C([2H])([2H])[2H])C([2H])([2H])[2H])c2c1 [I-A-6, 2-(5-(methoxy-d3)-1H-indol-3-yl)-N,N-bis(methyl-d3)ethan-1-amine-1,1,2,2-d4] | – | – | 15.50 | 2.3 | 16.4 | 97.5 | 36.8 | 65.29 | 5.25 | 9.88 | 9.26
[2H]C([2H])([2H])N(C([2H])([2H])[2H])C([2H])([2H])C([2H])([2H])c1c[nH]c2ccccc12 [I-A-1, 2-(1H-indol-3-yl)-N,N-bis(methyl-d3)ethan-1-amine-1,1,2,2-d4] | < 1000 | < 500 | 0.46 | 7.73 | 19 | 87.2 | 39.2 | 62.07 | 9.38 | 17.6 | 39.7
